Assay results taken from patent US10485800B2, “Mixed lineage kinase inhibitors for HIV/AIDS therapies” (UNIVERSITY OF ROCHESTER, priority 2012, dated 2019).
pIC50: −log10 of the molar value. Where two headings read alike, the source gives them in different places.

Target: MLK3 (Homo sapiens (Human), UniProt Q16584)
Assay: Radiometric filter plate MLK3 assay
Format: biochemical
Details: read-out: MK3 IC50
Method: After a twenty minute incubation, the reactions were washed through filter plates and read on a scintillation counter. Results are shown in Table 9 below, in which +++ indicates ≤0.1 μM, ++ indicates >0.1 μM and ≤1 μM, and + indicates >1 μM.

[1] = 2 μM cold ATP (Km), 1 μM inactive MKK7b, twenty minute incubation

Chain of MLK3 (Q16584 whole entry): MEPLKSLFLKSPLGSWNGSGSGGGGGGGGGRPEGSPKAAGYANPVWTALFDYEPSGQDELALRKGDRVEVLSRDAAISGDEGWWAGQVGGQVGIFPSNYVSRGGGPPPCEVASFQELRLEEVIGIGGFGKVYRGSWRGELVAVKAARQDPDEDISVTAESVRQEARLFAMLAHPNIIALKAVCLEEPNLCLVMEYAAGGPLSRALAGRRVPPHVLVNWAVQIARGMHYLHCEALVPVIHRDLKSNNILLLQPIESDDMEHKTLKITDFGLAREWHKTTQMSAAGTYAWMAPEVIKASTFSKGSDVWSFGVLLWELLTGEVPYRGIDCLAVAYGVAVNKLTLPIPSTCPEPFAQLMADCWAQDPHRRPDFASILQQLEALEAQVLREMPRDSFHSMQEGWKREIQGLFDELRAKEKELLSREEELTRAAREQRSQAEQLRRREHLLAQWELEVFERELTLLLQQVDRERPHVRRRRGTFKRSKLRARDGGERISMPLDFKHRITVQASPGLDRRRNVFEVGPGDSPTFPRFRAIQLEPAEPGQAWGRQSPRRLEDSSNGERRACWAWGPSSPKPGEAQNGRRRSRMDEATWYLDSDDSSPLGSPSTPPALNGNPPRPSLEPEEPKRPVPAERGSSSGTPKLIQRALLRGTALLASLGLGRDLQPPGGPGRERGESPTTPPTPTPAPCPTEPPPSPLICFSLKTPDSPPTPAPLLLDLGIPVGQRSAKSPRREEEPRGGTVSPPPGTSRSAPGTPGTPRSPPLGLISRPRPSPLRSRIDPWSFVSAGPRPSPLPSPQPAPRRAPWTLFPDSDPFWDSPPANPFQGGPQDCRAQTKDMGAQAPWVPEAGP

Structure (SMILES) | pIC50 [1] | pIC50
O=c1[nH]c2ncc(-c3cc(F)c(O)c(F)c3)nc2n1-c1ccc2[nH]ccc2c1 [Example 59, 6-(3,5-difluoro-4-hydroxyphenyl)-1-(1H-indol-5-yl)-1H-imidazo[4,5-b]pyrazin-2(3H)-one] | > 7.00 | –
COc1cc(-c2cnc3[nH]c(=O)n(-c4ccc5[nH]ccc5c4)c3n2)ccc1N [Example 60, 6-(4-amino-3-methoxyphenyl)-1-(1H-indol-5-yl)-1H-imidazo[4,5-b]pyrazin-2(3H)-one] | > 7.00 | –
O=c1[nH]c2ncc(-c3cc(F)cc(F)c3)nc2n1-c1ccc2[nH]ccc2c1 [Example 61, 6-(3,5-difluorophenyl)-1-(1H-indol-5-yl)-1H-imidazo[4,5-b]pyrazin-2(3H)-one] | < 6.00 | –
COc1cc(OC)cc(-c2cnc3[nH]c(=O)n(-c4ccc5[nH]ccc5c4)c3n2)c1 [Example 65, 6-(3,5-dimethoxyphenyl)-1-(1H-indol-5-yl)-1H-imidazo[4,5-b]pyrazin-2(3H)-one] | < 6.00 | –
COc1ccc(-n2c(=O)[nH]c3ncc(-c4ccc(OC)c(OC)c4)nc32)cc1 [Example 69, 6-(3,4-dimethoxyphenyl)-1-(4-methoxyphenyl)-1H-imidazo[4,5-b]pyrazin-2(3H)-one] | < 6.00 | –
COc1ccc(-n2c(=O)[nH]c3ncc(-c4ccc(O)cc4)nc32)cc1 [Example 70, 6-(4-hydroxyphenyl)-1-(4-methoxyphenyl)-1H-imidazo[4,5-b]pyrazin-2(3H)-one] | < 6.00 | –
COc1ccc(-n2c(=O)[nH]c3ncc(-c4ccncc4)nc32)cc1 [Example 71, 1-(4-methoxyphenyl)-6-(pyridin-4-yl)-1H-imidazo[4,5-b]pyrazin-2(3H)-one] | < 6.00 | –
COc1cc(-c2cnc3[nH]c(=O)n(-c4ccc5[nH]c(C)cc5c4)c3n2)cc(OC)c1OC [Example 72, 1-(2-methyl-1H-indol-5-yl)-6-(3,4,5-trimethoxyphenyl)-1H-imidazo[4,5-b]pyrazin-2(3H)-one] | > 7.00 | –
COc1cc(-c2cnc3[nH]c(=O)n(C4CCCC4)c3n2)cc(OC)c1OC [Example 74, 1-cyclopentyl-6-(3,4,5-trimethoxyphenyl)-1H-imidazo[4,5-b]pyrazin-2(3H)-one] | > 7.00 | –
COc1ccc(-c2cnc3[nH]c(=O)n(C4CCCC4)c3n2)cc1OC [Example 75, 1-cyclopentyl-6-(3,4-dimethoxyphenyl)-1H-imidazo[4,5-b]pyrazin-2(3H)-one] | < 6.00 | –
COc1cc(-c2cnc3[nH]c(=O)n(-c4ccc5[nH]ncc5c4)c3n2)cc(OC)c1OC [Example 83, 1-(1H-indazol-5-yl)-6-(3,4,5-trimethoxyphenyl)-1H-imidazo[4,5-b]pyrazin-2(3H)-one] | – | 6.00 to 7.00
Cc1cc2cc(-n3c(=O)[nH]c4ncc(-c5ccncc5)nc43)ccc2[nH]1 [Example 85, 1-(2-methyl-1H-indol-5-yl)-6-(pyridin-4-yl)-1H-imidazo[4,5-b]pyrazin-2(3H)-one] | < 6.00 | –
COc1ccc(-c2cnc3[nH]c(=O)n(-c4ccc5[nH]ncc5c4)c3n2)cc1OC [Example 87, 6-(3,4-dimethoxyphenyl)-1-(1H-indazol-5-yl)-1H-imidazo[4,5-b]pyrazin-2(3H)-one] | < 6.00 | –
O=c1[nH]c2ncc(-c3ccncc3)nc2n1-c1ccc2[nH]ncc2c1 [Example 88, 1-(1H-indazol-5-yl)-6-(pyridin-4-yl)-1H-imidazo[4,5-b]pyrazin-2(3H)-one] | < 6.00 | –
O=c1[nH]c2ncc(-c3ccc(N4CCOCC4)cc3)nc2n1-c1ccc2[nH]ncc2c1 [Example 89, 1-(1H-indazol-5-yl)-6-(4-morpholinophenyl)-1H-imidazo[4,5-b]pyrazin-2(3H)-one] | < 6.00 | –
Cc1cc(C)cc(-c2cnc3[nH]c(=O)n(-c4ccc5cn[nH]c5c4)c3n2)c1 [Example 95, 6-(3,5-dimethylphenyl)-1-(1H-indazol-6-yl)-1H-imidazo[4,5-b]pyrazin-2(3H)-one] | < 6.00 | –
O=c1[nH]c2ncc(-c3ccncc3)nc2n1-c1ccc2scnc2c1 [Example 98, 1-(benzo[d]thiazol-5-yl)-6-(pyridin-4-yl)-1H-imidazo[4,5-b]pyrazin-2(3H)-one] | < 6.00 | –
O=c1[nH]c2ncc(-c3ccc(N4CCOCC4)cc3)nc2n1-c1ccc2scnc2c1 [Example 100, 1-(benzo[d]thiazol-5-yl)-6-(4-morpholinophenyl)-1H-imidazo[4,5-b]pyrazin-2(3H)-one] | < 6.00 | –
COc1cc(-c2cnc3[nH]c(=O)n(-c4ccc(N5CCOCC5)nc4)c3n2)cc(OC)c1OC [Example 109, 1-(6-morpholinopyridin-3-yl)-6-(3,4,5-trimethoxyphenyl)-1H-imidazo[4,5-b]pyrazin-2(3H)-one] | < 6.00 | –
COc1cc(-c2cnc3[nH]c(=O)n(C4Cc5ccccc5C4)c3n2)cc(OC)c1OC [Example 110, 1-(2,3-dihydro-1H-inden-2-yl)-6-(3,4,5-trimethoxyphenyl)-1H-imidazo[4,5-b]pyrazin-2(3H)-one] | > 7.00 | –
Nc1ccc(-c2cnc3[nH]c(=O)n(C4CCCC4)c3n2)cn1 [Example 117, 6-(6-aminopyridin-3-yl)-1-cyclopentyl-1H-imidazo[4,5-b]pyrazin-2(3H)-one] | < 6.00 | –
COc1cc(-c2cnc3[nH]c(=O)n(C4CCCC4)c3n2)ccc1N [Example 118, 6-(4-amino-3-methoxyphenyl)-1-cyclopentyl-1H-imidazo[4,5-b]pyrazin-2(3H)-one] | – | 6.00 to 7.00
COc1cc(-c2cnc3c(c2)C(CC2CC2)C(=O)N3)cc(OC)c1OC (centres unmarked) [Example 123, 3-(cyclopropylmethyl)-5-(3,4,5-trimethoxyphenyl)-1H-pyrrolo[2,3-b]pyridin-2(3H)-one] | 6.00 to 7.00 | –
COc1cc(-c2cnc3[nH]c(=O)n(CC4CC4)c3c2)cc(OC)c1OC [Example 125, 1-(cyclopropylmethyl)-6-(3,4,5-trimethoxyphenyl)-1H-imidazo[4,5-b]pyridin-2(3H)-one] | < 6.00 | –

Other lines, results leading:

pIC50 [1] | pIC50 | Structure (SMILES)
> 7.00 | – | COc1cc(-c2cnc3[nH]c(=O)n(-c4ccc5[nH]ccc5c4)c3n2)cc(OC)c1O [Example 62, 6-(4-hydroxy-3,5-dimethoxyphenyl)-1-(1H-indol-5-yl)-1H-imidazo[4,5-b]pyrazin-2(3H)-one]
< 6.00 | – | CN1CCN(c2cc(-c3cnc4[nH]c(=O)n(-c5ccc6[nH]ccc6c5)c4n3)ccn2)CC1 [Example 66, 1-(1H-indol-5-yl)-6-(2-(4-methylpiperazin-1-yl)pyridin-4-yl)-1H-imidazo[4,5-b]pyrazin-2(3H)-one]
< 6.00 | – | Cc1cc2cc(-n3c(=O)[nH]c4ncc(-c5cc(Cl)cc(Cl)c5)nc43)ccc2[nH]1 [Example 73, 6-(3,5-dichlorophenyl)-1-(2-methyl-1H-indol-5-yl)-1H-imidazo[4,5-b]pyrazin-2(3H)-one]
< 6.00 | – | O=c1[nH]c2ncc(-c3ccncc3)nc2n1C1CCCC1 [Example 77, 1-cyclopentyl-6-(pyridin-4-yl)-1H-imidazo[4,5-b]pyrazin-2(3H)-one]
< 6.00 | – | O=c1[nH]c2ncc(-c3cc(Cl)cc(Cl)c3)nc2n1CC1CC1 [Example 80, 1-(cyclopropylmethyl)-6-(3,5-dichlorophenyl)-1H-imidazo[4,5-b]pyrazin-2(3H)-one]
< 6.00 | – | O=c1[nH]c2ncc(-c3ccc(O)cc3)nc2n1CC1CC1 [Example 81, 1-(cyclopropylmethyl)-6-(4-hydroxyphenyl)-1H-imidazo[4,5-b]pyrazin-2(3H)-one]
< 6.00 | – | O=c1[nH]c2ncc(-c3ccncc3)nc2n1CC1CC1 [Example 82, 1-(cyclopropylmethyl)-6-(pyridin-4-yl)-1H-imidazo[4,5-b]pyrazin-2(3H)-one]
< 6.00 | – | O=c1[nH]c2ncc(-c3ccc(N4CCOCC4)cc3)nc2n1CC1CC1 [Example 86, 1-(cyclopropylmethyl)-6-(4-morpholinophenyl)-1H-imidazo[4,5-b]pyrazin-2(3H)-one]
< 6.00 | – | O=c1[nH]c2ncc(-c3ccc(O)cc3)nc2n1-c1ccc2cn[nH]c2c1 [Example 92, 6-(4-hydroxyphenyl)-1-(1H-indazol-6-yl)-1H-imidazo[4,5-b]pyrazin-2(3H)-one]
< 6.00 | – | COc1cc(OC)c(-c2cnc3[nH]c(=O)n(C4CCCC4)c3n2)c(OC)c1 [Example 94, 1-cyclopentyl-6-(2,4,6-trimethoxyphenyl)-1H-imidazo[4,5-b]pyrazin-2(3H)-one]
< 6.00 | – | Cc1cc(C)cc(-c2cnc3[nH]c(=O)n(-c4ccc5scnc5c4)c3n2)c1 [Example 99, 1-(benzo[d]thiazol-5-yl)-6-(3,5-dimethylphenyl)-1H-imidazo[4,5-b]pyrazin-2(3H)-one]
< 6.00 | – | COc1cc(-c2cnc3[nH]c(=O)n(C4CCc5ccccc54)c3n2)cc(OC)c1OC (centres unmarked) [Example 101, 1-(2,3-dihydro-1H-inden-1-yl)-6-(3,4,5-trimethoxyphenyl)-1H-imidazo[4,5-b]pyrazin-2(3H)-one]
> 7.00 | – | COc1cc(-c2cnc3[nH]c(=O)n(-c4ccc5[nH]cnc5c4)c3n2)cc(OC)c1OC [Example 102, 1-(1H-benzo[d]imidazol-5-yl)-6-(3,4,5-trimethoxyphenyl)-1H-imidazo[4,5-b]pyrazin-2(3H)-one]
> 7.00 | – | COc1cc(-c2cnc3[nH]c(=O)n(-c4cnc5[nH]ccc5c4)c3n2)cc(OC)c1OC [Example 112, 1-(1H-pyrrolo[2,3-b]pyridin-5-yl)-6-(3,4,5-trimethoxyphenyl)-1H-imidazo[4,5-b]pyrazin-2(3H)-one]
> 7.00 | – | COc1cc(-c2cnc3[nH]c(=O)n(-c4ccc5cc[nH]c5c4)c3n2)cc(OC)c1OC [Example 113, 1-(1H-indol-6-yl)-6-(3,4,5-trimethoxyphenyl)-1H-imidazo[4,5-b]pyrazin-2(3H)-one]
< 6.00 | – | COc1cc(-c2nc3c(nc2Cl)[nH]c(=O)n3CC2CC2)cc(OC)c1OC [Example 119, 5-chloro-1-(cyclopropylmethyl)-6-(3,4,5-trimethoxyphenyl)-1H-imidazo[4,5-b]pyrazin-2(3H)-one]
< 6.00 | – | COc1cc(-c2cnc3ncn(-c4ccc5[nH]ccc5c4)c3n2)cc(OC)c1OC [Example 126, 1-(1H-indol-5-yl)-6-(3,4,5-trimethoxyphenyl)-1H-imidazo[4,5-b]pyrazine]
